Measurements taken from patent US20260284018A1, “DUAL INHIBITORS OF DYRK1A AND 5-HT2 FOR TREATING A BRAIN DISORDER” (THE REGENTS OF THE UNIVERSITY OF CALIFORNIA, priority 2023, published 2026).

Assays:
Test in all cases: KINOMEscan scanEDGE
Format in all cases: binding
Conditions in all cases: read-out: Percent Control
[1] = target: T1, ABL1(E255K)-phosphorylated (Homo sapiens, UniProt P00519, E255K)
T1 construct: purchased Eurofins DiscoverX
Protocol: (§1) Kinome Scan. Compound HTW_A_8 fumarate was screened against 97 kinases at a single concentration of 10 μM at Eurofins DiscoverX using their KINOMEscan™ scanEDGE assay. The results are reported as the % activity relative to DMSO control, where lower values indicate higher affinity. See Table 1 for the full kinome profile.

[2] = target: T2, ABL1(T315I)-phosphorylated (Homo sapiens, UniProt P00519, T315I)
T2 construct: purchased Eurofins DiscoverX
Protocol: as §1

ABL1-nonphosphorylated = target: T3, ABL1-nonphosphorylated (Homo sapiens, UniProt P00519)
T3 construct: purchased Eurofins DiscoverX
Protocol: as §1

ABL1-phosphorylated = target: T4, ABL1-phosphorylated (Homo sapiens, UniProt P00519)
T4 construct: purchased Eurofins DiscoverX
Protocol: as §1

ACVR1B = target: T5, ACVR1B (Homo sapiens, UniProt P36896)
T5 construct: purchased Eurofins DiscoverX
Protocol: as §1

AKT2 = target: T6, AKT2 (Homo sapiens, UniProt P31751)
T6 construct: purchased Eurofins DiscoverX
Protocol: as §1

BMPR2 = target: T7, BMPR2 (Homo sapiens, UniProt Q13873)
T7 construct: purchased Eurofins DiscoverX
Protocol: as §1

BRAF(V600E) = target: T8, BRAF(V600E) (Homo sapiens, UniProt P15056, V600E)
T8 construct: purchased Eurofins DiscoverX
Protocol: as §1

CDK7 = target: T9, CDK7 (Homo sapiens, UniProt P50613)
T9 construct: purchased Eurofins DiscoverX
Protocol: as §1

CDK9 = target: T10, CDK9 (Homo sapiens, UniProt P50750)
T10 construct: purchased Eurofins DiscoverX
Protocol: as §1

CSNK1D = target: T11, CSNK1D (Homo sapiens, UniProt P48730)
T11 construct: purchased Eurofins DiscoverX
T11 sequence (P48730 whole entry): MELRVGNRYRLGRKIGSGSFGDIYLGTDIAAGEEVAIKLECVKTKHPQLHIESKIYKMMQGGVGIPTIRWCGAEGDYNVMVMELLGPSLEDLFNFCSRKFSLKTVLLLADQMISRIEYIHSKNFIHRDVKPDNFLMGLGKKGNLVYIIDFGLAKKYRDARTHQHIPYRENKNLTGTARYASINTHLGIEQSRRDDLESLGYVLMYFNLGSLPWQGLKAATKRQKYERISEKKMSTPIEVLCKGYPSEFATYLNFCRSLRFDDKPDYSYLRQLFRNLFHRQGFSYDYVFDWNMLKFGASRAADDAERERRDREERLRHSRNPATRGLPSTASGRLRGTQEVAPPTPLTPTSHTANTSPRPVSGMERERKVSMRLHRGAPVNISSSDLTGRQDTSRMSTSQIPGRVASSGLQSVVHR
Protocol: as §1

DYRK1B = target: T12, DYRK1B (Homo sapiens, UniProt Q9Y463)
T12 construct: purchased Eurofins DiscoverX
Protocol: as §1

ERK1 = target: T13, ERK1 (Homo sapiens, UniProt P27361)
T13 construct: purchased Eurofins DiscoverX
Protocol: as §1

FGFR2 = target: T14, FGFR2 (Homo sapiens, UniProt P21802)
T14 construct: purchased Eurofins DiscoverX
T14 sequence (P21802 22-821): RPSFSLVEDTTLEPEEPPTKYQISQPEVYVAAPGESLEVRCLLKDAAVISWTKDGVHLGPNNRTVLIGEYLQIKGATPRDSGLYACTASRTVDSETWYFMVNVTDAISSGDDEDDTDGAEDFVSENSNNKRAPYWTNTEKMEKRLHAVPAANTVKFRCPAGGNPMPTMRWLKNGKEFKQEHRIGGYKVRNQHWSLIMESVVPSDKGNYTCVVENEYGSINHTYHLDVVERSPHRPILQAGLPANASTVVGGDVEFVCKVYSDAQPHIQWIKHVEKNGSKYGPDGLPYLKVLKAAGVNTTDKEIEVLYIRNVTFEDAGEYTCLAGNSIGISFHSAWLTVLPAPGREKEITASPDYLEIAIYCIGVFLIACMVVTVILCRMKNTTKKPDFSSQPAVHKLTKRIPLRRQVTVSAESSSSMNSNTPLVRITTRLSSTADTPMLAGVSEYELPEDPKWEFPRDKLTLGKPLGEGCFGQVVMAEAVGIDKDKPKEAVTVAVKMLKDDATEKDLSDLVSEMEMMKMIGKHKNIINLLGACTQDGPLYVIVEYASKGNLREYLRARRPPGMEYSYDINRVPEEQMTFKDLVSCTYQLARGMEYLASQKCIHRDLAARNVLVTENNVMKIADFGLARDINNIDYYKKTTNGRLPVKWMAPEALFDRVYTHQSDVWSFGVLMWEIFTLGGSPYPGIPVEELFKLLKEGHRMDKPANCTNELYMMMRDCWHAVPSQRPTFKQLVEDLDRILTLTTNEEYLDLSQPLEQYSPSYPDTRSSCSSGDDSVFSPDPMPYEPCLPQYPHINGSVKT
Protocol: as §1

IKK-alpha = target: T15, IKK-alpha (Homo sapiens, UniProt O15111)
T15 construct: purchased Eurofins DiscoverX
Protocol: as §1

INSR = target: T16, INSR (Homo sapiens, UniProt P06213)
T16 construct: purchased Eurofins DiscoverX
Protocol: as §1

[3] = target: T17, JAK3(JH1domain-catalytic) (Homo sapiens, UniProt P52333)
T17 construct: JAK3(JH1domain-catalytic); purchased Eurofins DiscoverX
Protocol: as §1

KIT = target: T18, KIT (Homo sapiens, UniProt P10721)
T18 construct: purchased Eurofins DiscoverX
Protocol: as §1

KIT(V559D, T670I) = target: T19, KIT(V559D, T670I) (Homo sapiens, UniProt P10721, T670I/V559D)
T19 construct: purchased Eurofins DiscoverX
Protocol: as §1

LKB1 = target: T20, LKB1 (Homo sapiens, UniProt Q15831)
T20 construct: purchased Eurofins DiscoverX (KINOMEscan scanEDGE service)
Protocol: as §1

MAPKAPK2 = target: T21, MAPKAPK2 (Homo sapiens, UniProt P49137)
T21 construct: purchased Eurofins DiscoverX (KINOMEscan scanEDGE service)
Protocol: as §1

MARK3 = target: T22, MARK3 (Homo sapiens, UniProt P27448)
T22 construct: purchased Eurofins DiscoverX (KINOMEscan scanEDGE service)
T22 sequence (P27448 whole entry): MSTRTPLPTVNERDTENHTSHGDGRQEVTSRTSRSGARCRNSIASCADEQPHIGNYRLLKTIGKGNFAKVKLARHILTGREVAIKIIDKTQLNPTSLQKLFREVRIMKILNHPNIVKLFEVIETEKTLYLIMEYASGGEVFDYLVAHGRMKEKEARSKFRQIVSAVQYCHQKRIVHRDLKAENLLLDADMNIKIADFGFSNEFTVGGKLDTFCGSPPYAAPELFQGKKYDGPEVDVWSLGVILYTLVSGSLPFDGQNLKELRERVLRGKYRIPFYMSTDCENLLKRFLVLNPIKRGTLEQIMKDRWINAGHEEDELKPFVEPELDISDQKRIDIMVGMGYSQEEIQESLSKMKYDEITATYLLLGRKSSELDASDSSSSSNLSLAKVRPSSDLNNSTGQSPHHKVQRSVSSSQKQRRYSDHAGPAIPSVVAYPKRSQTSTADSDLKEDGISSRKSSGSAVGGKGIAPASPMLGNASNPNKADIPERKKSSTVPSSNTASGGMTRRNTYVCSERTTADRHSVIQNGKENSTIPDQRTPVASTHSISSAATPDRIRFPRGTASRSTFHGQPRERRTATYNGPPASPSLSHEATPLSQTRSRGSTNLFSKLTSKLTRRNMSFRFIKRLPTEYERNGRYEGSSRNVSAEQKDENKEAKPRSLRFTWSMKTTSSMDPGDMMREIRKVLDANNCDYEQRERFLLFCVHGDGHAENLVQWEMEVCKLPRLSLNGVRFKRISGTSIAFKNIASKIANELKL
Protocol: as §1

MEK1 = target: T23, MEK1 (Homo sapiens, UniProt Q02750)
T23 construct: purchased Eurofins DiscoverX (KINOMEscan scanEDGE service)
Protocol: as §1

MET = target: T24, MET (Homo sapiens, UniProt P08581)
T24 construct: purchased Eurofins DiscoverX (KINOMEscan scanEDGE service)
Protocol: as §1

MKNK1 = target: T25, MKNK1 (Homo sapiens, UniProt Q9BUB5)
T25 construct: purchased Eurofins DiscoverX (KINOMEscan scanEDGE service)
T25 sequence (Q9BUB5 whole entry): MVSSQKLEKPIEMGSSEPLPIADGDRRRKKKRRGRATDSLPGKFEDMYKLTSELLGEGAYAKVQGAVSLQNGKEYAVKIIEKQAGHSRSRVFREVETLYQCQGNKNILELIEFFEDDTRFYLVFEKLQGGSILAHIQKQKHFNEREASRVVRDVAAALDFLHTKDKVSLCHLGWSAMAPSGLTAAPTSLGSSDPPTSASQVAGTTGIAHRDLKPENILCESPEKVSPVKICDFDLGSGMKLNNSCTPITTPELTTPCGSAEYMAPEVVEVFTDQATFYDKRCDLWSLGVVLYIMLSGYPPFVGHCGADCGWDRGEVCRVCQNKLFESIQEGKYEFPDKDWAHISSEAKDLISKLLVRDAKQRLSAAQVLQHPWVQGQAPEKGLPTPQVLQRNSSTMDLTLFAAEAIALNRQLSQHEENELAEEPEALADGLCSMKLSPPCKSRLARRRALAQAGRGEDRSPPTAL
Protocol: as §1

MLK1 = target: T26, MLK1 (Homo sapiens, UniProt P80192)
T26 construct: purchased Eurofins DiscoverX (KINOMEscan scanEDGE service)
T26 sequence (P80192 whole entry): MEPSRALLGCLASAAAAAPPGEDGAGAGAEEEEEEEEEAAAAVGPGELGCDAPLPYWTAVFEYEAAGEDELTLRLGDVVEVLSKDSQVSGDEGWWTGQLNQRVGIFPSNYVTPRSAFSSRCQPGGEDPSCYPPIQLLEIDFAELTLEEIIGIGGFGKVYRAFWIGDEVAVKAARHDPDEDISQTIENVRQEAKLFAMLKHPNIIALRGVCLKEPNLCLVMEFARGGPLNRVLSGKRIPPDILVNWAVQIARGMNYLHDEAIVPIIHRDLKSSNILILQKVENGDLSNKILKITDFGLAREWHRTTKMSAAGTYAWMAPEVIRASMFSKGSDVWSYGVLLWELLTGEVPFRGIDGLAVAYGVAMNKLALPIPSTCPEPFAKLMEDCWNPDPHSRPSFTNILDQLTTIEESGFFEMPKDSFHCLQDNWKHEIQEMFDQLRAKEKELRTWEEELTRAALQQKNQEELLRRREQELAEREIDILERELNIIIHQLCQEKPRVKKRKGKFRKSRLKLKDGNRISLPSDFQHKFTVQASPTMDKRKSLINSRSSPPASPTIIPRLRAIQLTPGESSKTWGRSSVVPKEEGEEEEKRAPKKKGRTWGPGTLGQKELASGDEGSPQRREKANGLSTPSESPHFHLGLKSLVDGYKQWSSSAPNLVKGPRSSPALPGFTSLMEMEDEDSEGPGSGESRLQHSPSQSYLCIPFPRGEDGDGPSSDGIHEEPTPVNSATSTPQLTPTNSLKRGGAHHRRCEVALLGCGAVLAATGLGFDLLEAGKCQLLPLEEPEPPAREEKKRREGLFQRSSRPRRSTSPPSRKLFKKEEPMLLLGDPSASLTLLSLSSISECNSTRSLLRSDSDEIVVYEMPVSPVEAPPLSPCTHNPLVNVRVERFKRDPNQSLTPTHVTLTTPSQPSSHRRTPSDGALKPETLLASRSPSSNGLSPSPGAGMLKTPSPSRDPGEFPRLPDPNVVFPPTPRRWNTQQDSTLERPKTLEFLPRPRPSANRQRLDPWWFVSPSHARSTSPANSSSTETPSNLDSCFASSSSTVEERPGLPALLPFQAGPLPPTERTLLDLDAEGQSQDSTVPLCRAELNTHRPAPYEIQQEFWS
Protocol: as §1

PAK1 = target: T27, PAK1 (Homo sapiens, UniProt Q13153)
T27 construct: purchased Eurofins DiscoverX (KINOMEscan scanEDGE service)
T27 sequence (Q13153 whole entry): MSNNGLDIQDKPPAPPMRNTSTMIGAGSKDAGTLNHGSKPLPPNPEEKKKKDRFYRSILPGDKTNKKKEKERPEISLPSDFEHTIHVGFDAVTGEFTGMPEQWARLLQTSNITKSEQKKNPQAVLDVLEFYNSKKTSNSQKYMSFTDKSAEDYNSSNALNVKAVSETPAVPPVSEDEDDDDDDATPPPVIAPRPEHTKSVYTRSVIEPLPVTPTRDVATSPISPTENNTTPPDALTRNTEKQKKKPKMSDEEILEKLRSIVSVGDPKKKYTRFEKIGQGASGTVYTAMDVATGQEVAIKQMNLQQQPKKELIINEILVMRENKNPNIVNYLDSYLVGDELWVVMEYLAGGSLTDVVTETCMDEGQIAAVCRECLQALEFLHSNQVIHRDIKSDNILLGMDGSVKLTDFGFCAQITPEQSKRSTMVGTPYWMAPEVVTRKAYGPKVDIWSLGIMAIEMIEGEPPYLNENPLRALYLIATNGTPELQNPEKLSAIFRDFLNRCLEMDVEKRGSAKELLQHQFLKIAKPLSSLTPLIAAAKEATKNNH
Protocol: as §1

PIK3C2B = target: T28, PIK3C2B (Homo sapiens, UniProt O00750)
T28 construct: purchased Eurofins DiscoverX (KINOMEscan scanEDGE service)
Protocol: as §1

PIK3CG = target: T29, PIK3CG (Homo sapiens, UniProt P48736)
T29 construct: purchased Eurofins DiscoverX (KINOMEscan scanEDGE service)
Protocol: as §1

PIM1 = target: T30, PIM1 (Homo sapiens, UniProt P11309)
T30 construct: purchased Eurofins DiscoverX (KINOMEscan scanEDGE service)
T30 sequence (P11309 whole entry): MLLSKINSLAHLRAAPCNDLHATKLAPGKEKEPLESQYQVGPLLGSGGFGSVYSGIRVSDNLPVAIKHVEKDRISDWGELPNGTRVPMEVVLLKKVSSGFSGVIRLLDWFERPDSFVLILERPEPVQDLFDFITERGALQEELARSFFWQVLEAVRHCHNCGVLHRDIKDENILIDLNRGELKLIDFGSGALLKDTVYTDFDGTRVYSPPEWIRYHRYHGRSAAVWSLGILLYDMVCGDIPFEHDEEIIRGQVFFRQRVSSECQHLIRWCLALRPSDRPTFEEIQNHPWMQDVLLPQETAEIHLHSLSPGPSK
Protocol: as §1

PLK3 = target: T31, PLK3 (Homo sapiens, UniProt Q9H4B4)
T31 construct: purchased Eurofins DiscoverX KINOMEscan scanEDGE
Protocol: as §1

PLK4 = target: T32, PLK4 (Homo sapiens, UniProt O00444)
T32 construct: purchased Eurofins DiscoverX KINOMEscan scanEDGE
Protocol: as §1

RAF1 = target: T33, RAF1 (Homo sapiens, UniProt P04049)
T33 construct: purchased Eurofins DiscoverX KINOMEscan scanEDGE
Protocol: as §1

RIOK2 = target: T34, RIOK2 (Homo sapiens, UniProt Q9BVS4)
T34 construct: purchased Eurofins DiscoverX KINOMEscan scanEDGE
Protocol: as §1

TIE2 = target: T35, TIE2 (Homo sapiens, UniProt Q02763)
T35 construct: purchased Eurofins DiscoverX KINOMEscan scanEDGE
Protocol: as §1

YANK3 = target: T36, YANK3 (Homo sapiens, UniProt Q86UX6)
T36 construct: purchased Eurofins DiscoverX KINOMEscan scanEDGE
Protocol: as §1

p38-alpha = target: T37, p38-alpha (Homo sapiens, UniProt Q16539)
T37 construct: purchased Eurofins DiscoverX (KINOMEscan scanEDGE service)
Protocol: as §1

p38-beta = target: T38, p38-beta (Homo sapiens, UniProt Q15759)
T38 construct: purchased Eurofins DiscoverX (KINOMEscan scanEDGE service)
T38 sequence (Q15759 whole entry): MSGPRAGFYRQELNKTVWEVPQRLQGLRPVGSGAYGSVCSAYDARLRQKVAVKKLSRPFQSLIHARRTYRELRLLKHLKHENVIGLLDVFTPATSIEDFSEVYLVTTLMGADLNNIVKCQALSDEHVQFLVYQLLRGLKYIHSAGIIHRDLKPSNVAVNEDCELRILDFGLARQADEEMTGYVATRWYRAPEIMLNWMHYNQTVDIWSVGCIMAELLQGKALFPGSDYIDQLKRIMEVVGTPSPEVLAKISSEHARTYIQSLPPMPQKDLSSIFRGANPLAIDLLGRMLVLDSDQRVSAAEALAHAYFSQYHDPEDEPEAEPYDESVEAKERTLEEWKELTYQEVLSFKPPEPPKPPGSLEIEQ
Protocol: as §1

COc1ccc2c3ccnc(C)c3n(CCN(C)C)c2c1.O=C(O)/C=C/C(=O)O [HTW_A_8 fumarate, 2-(7-methoxy-1-methyl-9H-pyrido[3,4-b]indol-9-yl)-N,N-dimethylethan-1-amine Fumarate Salt (2:3)] was tested, and the remaining binding at 10 µM [1] was 79%, the remaining binding at 10 µM [2] was 100% and the remaining binding at 10 µM (ABL1-nonphosphorylated) was 79%. It also gave a remaining binding at 10 µM (ABL1-phosphorylated) of 81%, a remaining binding at 10 µM (ACVR1B) of 83% and a remaining binding at 10 µM (AKT2) of 100%. It also gave a remaining binding at 10 µM (BMPR2) of 100%, a remaining binding at 10 µM (BRAF(V600E)) of 100% and a remaining binding at 10 µM (CDK7) of 15%. For the same molecule, the remaining binding at 10 µM (CDK9) was 100%, the remaining binding at 10 µM (CSNK1D) was 88% and the remaining binding at 10 µM (DYRK1B) was 10%. For the same molecule, the remaining binding at 10 µM (ERK1) was 85%, the remaining binding at 10 µM (FGFR2) was 95% and the remaining binding at 10 µM (IKK-alpha) was 100%. It also gave a remaining binding at 10 µM (INSR) of 100%, a remaining binding at 10 µM [3] of 100% and a remaining binding at 10 µM (KIT) of 100%. The remaining binding at 10 µM (KIT(V559D, T670I)) was 89%, the remaining binding at 10 µM (LKB1) was 71% and the remaining binding at 10 µM (MAPKAPK2) was 99%. For the same molecule, the remaining binding at 10 µM (MARK3) was 100%, the remaining binding at 10 µM (MEK1) was 87% and the remaining binding at 10 µM (MET) was 100%. The remaining binding at 10 µM (MKNK1) was 93%, the remaining binding at 10 µM (MLK1) was 91% and the remaining binding at 10 µM (PAK1) was 100%. For the same molecule, the remaining binding at 10 µM (PIK3C2B) was 100%, the remaining binding at 10 µM (PIK3CG) was 33% and the remaining binding at 10 µM (PIM1) was 94%. The remaining binding at 10 µM (PLK3) was 96%, the remaining binding at 10 µM (PLK4) was 81% and the remaining binding at 10 µM (RAF1) was 93%. The remaining binding at 10 µM (RIOK2) was 83%, the remaining binding at 10 µM (TIE2) was 99% and the remaining binding at 10 µM (YANK3) was 94%. It also gave a remaining binding at 10 µM (p38-alpha) of 100% and a remaining binding at 10 µM (p38-beta) of 98%.
